Measured values taken from patent publication US5416070A, “Composition for macrophage activation” (ImmunoTherapeutics, Inc., priority 1990, dated 1995).

Key:
[1] = tested on: Meth A sarcoma; assay: Antitumor activity in saline in the Meth A sarcoma; format: in vivo, mice
Description: BALB/C female mice, age 7 weeks, were injected subcutaneously with 1×10^6 Meth A tumor cells. Eight days later the animals were treated intravenously with either saline (control) or Compound IIA at a dose of 1, 10, or 100 micrograms (μg). Each group consisted of 4 animals. Tumor measurements were taken every 2 days for 10 days and the mice followed for 60 days until cured or death due to tumor occurred.

[2] = tested on: Balb/c mice; assay: Adjuvant activity on antibody producing cells: plaque forming units per spleen after SRBC immunization; format: in vivo
Description: The efficacy of the compound of the invention in inducing antibody response was evaluated in an immuno-compromised model using aged Balb/c mice and in normal mice using a suboptimal dose of the immunogen.
[…] The spleen was removed on day 4 and assayed for plaque forming units.
The results (Table 1) indicated a total of 66×10^3 plaque forming units (PFU) per spleen for controls, 198×10^3 PFU per spleen for mice receiving SRBC mixed with 0.1 mg MDP and 442×10^3 PFU for mice receiving SRBC mixed with 0.1 mg. of a compound of the invention IIA. Similarly, young Balb/c mice were immunized intraperitoneally with a suboptimal dose of SRBC (1×10^7 cells) in saline or mixed with 0.01 of 0.1 mg of MDP or IIA.

[3] = tested on: Meth A sarcoma; assay: Effect with lipopolysaccharide on growth of Meth A sarcoma in mice; format: in vivo
Description: BALB/C mice 7-8 weeks of age were injected subcutaneously with Meth A sarcoma (1×10^6 cells) and treated intravenously on day 8 with 10 μg of lipopolysaccharide (LPS) from Salmonella typhimurium ReG 30/21 alone or combined with 1 or 10 μg of MDP or Compound IIA. Tumor growth was compared on day 6 following therapy.
The animals were followed and the percent cured determined at 60 days post-injection.

[4] = tested on: human peripheral blood monocytes; assay: Activation of monocytes in vitro measured by production of Interleukin-1-beta (ELISA); format: cell-based; settings: 24 Hours
Description: (§1) Human peripheral blood monocytes were isolated by density gradient centrifugation as noted in Example 13. The cell number was adjusted to 5×10^5 cells per ml in RPM 1640 media containing 5% human AB negative serum. One ml containing 5×10^5 cells were placed in individual wells of 24-well Plastek tissue culture plate. Various drugs in a volume of 0.5 ml were added at time zero. The compounds were also formulated in liposomes as described in Example 10, and added in a volume of 0.5 ml to individual wells of a 24-well Plastek tissue culture plate. The cells were incubated at 37° C. in a 5% CO2 atmosphere. Aliquots (0.1 ml) of the supernatant were removed at 24 hours and frozen at -20° C. These samples were subsequently assayed for TNF as described in Example 33 and Interleukin-1-beta (IL-1β) using a commercially available ELISA kit from Cistron (Pine Brook, N.J.).

[5] = tested on: human peripheral blood monocytes; assay: Activation of monocytes in vitro measured by production of tumor necrosis factor (ELISA); format: cell-based; settings: for TNF (pg/ml) at given Concentration of Compound: 24 Hours
Description: Human peripheral blood monocytes were isolated by density gradient centrifugation as noted in Example 13. The cell number was adjusted to 5×10^5 cells per ml in RPM 1640 media containing 5% human AB negative serum. One ml containing 5×10^5 cells were placed in individual wells of a 24-well Plastek tissue culture plate. Various drugs in a volume of 0.5 ml were added at time zero. The cells were incubated at 37° C. in a 5% CO2 atmosphere. Aliquots (0.1 ml) of the supernatant were removed at 24 hours and frozen at -80° C. These samples were subsequently assayed for tumor necrosis factor (TNF) activity using a commercially available ELISA Assay from T-Cell Sciences (Cambridge, Mass.).
Human peripheral blood monocytes were isolated by density gradient centrifugation as described in Example 13. The cells were plated in 24-well microliter plates as described in Example 33. The compounds Were prepared in liposomes as described in Example 10, and assayed for TNF production, as described in Example 33. The results are set forth in Table 5, and show significant levels of TNF compared to controls.
as §1

[6] = tested on: human peripheral blood monocytes; assay: Activation of human peripheral blood monocytes to the tumoricidal state (I125 labeled A-375 tumor cells); format: cell-based; settings: effector:target 10:1, A-375 tumor cells, 72 hours
Description: Monocyte tumoricidal activity was determined by the method of Fogler and Fidler (W. E. Fogler and I. J. Fidler, J. Immunol., 136; 2311-2317, 1986). Briefly, human peripheral blood monocytes were isolated by gradient centrifugation on 46% Percoll. Monocytes were then cultured in suspension for 18 hours in RPMI 1640 media containing 5% human sera with or without 1.0 μg/ml of Compound IIA at 1×10^6 monocytes/ml. After incubation monocytes were washed, and 1×10^5 or 5×10^4monocytes allowed to attach to wells of a 96-well microplate for 1 hour, then the plate was washed to remove non-adherent cells; to this, 1×10^4 I^125 labeled A-375 tumor cells were added. Monocytes were cultured with tumor cells for 72 hours. At the end of the 72 hour co-culture period, the plates were washed to remove non-adherent-non-viable tumor cells and the remaining adherent viable I^125 labeled tumor cells determined by lysing the cells with sodium dodecyl sulfate and counting radioactivity in a Gamma Counter.
Activation of human peripheral blood monocytes by liposomes consisting of PC and PG (7:3) containing Compound IIA was determined as described above.
The effector:target cell ratio was 10:1. The cultures contained a final concentration of 1.0 μg/ml of MDP, Compound IIA or Compound IIA in liposomes.

[7] = 1.0 μg combined with 10 μg LPS i.v. on day 8
[8] = 10 μg combined with 10 μg LPS i.v. on day 8

## CCCCCCCCCCCCCCCC(=O)OCC(COC(=O)C(C)NC(=O)CCC(NC(=O)C(C)NC(=O)C(C)OC1C(NC(C)=O)C(O)OC(CO)C1OC1OC(CO)C(O)C(O)C1NC(C)=O)C(N)=O)OC(=O)CCCCCCCCCCCCCCC [Compound IIA, 4-O-[2-acetamido-2-deoxy-β-D-glucopyranosyl]-2-acetamido-2-deoxy-3-O-[D-2-propanoyl-L-alanyl-D-isoglutaminyl-L-alanyl-1,2-dipalmitoyl-sn-glycerol]-D-glucopyranose]
[1]; 100 μg i.v.
  animals exhibiting complete regression of tumor: one of four
[1]; day 6 after therapy, single i.v. dose of 100 μg
  decrease in tumor growth: 50%
[2]; 3 months old mice, SRBC inoculum 1 × 10^7 i.p., 0.01 mg/mouse
  PFU ×10^3: 184 ×10^3
[2]; 3 months old mice, SRBC inoculum 1 × 10^7 i.p., 0.1 mg/mouse
  PFU ×10^3: 468 ×10^3
[2]; 18 months old mice, SRBC inoculum 1 × 10^8 i.p., 0.1 mg/mouse, spleen day 4
  PFU ×10^3: 442 ×10^3
[2]; aged Balb/c mice (18 months), SRBC mixed with 0.1 mg
  plaque forming units (PFU) per spleen: 442×10^3 PFU per spleen
[3]; [7]
  Complete Regression at Day 60: 50%
  Percent Change in Average Tumor Area 6 Days Post Treatment: -56%
[3]; [8]
  Complete Regression at Day 60: 100%
  Percent Change in Average Tumor Area 6 Days Post Treatment: -67%
[3]; Table 3, Meth A sarcoma
  interaction with LPS: synergistic activity
[4]; Table 8, Experiment 1, 0.01 μg/ml
  IL-1-beta (pg/ml) at given Concentration of Compound: 260 pg/mL
[4]; Table 8, Experiment 1, 0.1 μg/ml
  IL-1-beta (pg/ml) at given Concentration of Compound: 220 pg/mL
[4]; Table 8, Experiment 1, 1.0 μg/ml
  IL-1-beta (pg/ml) at given Concentration of Compound: 244 pg/mL
[4]; Table 8, Experiment 1, 10.0 μg/ml
  IL-1-beta (pg/ml) at given Concentration of Compound: 264 pg/mL
[5]; Experiment 1, free drug in saline 0.1 μg/ml, 24 hours
  TNF Level: 1760 pg/mL
[5]; Experiment 1, free drug in saline 1.0 μg/ml, 24 hours
  TNF Level: 1600 pg/mL
[5]; Experiment 1, free drug in saline 10.0 μg/ml, 24 hours
  TNF Level: 4550 pg/mL
[5]; Experiment 2, free drug in saline 0.1 μg/ml, 24 hours
  TNF Level: 1450 pg/mL
[5]; Experiment 2, free drug in saline 1.0 μg/ml, 24 hours
  TNF Level: 1580 pg/mL
[5]; Experiment 2, free drug in saline 10.0 μg/ml, 24 hours
  TNF Level: 1630 pg/mL
[5]; Experiment 3, free drug in saline 0.1 μg/ml, 24 hours
  TNF Level: 1450 pg/mL
[5]; Experiment 3, free drug in saline 1.0 μg/ml, 24 hours
  TNF Level: 1650 pg/mL
[5]; Experiment 3, free drug in saline 10.0 μg/ml, 24 hours
  TNF Level: 1800 pg/mL
[5]; Table 5, compound incorporated in liposomes, 0.1 μg/ml
  TNF Level: 1270 pg/mL
[5]; Table 5, compound incorporated in liposomes, 1.0 μg/ml
  TNF Level: 850 pg/mL
[5]; Table 5, compound incorporated in liposomes, 10.0 μg/ml
  TNF Level: 1050 pg/mL
[5]; Table 7, Experiment 1, 0.01 μg/ml
  TNF (pg/ml) at given Concentration of Compound: 650 pg/mL
[5]; Table 7, Experiment 1, 0.1 μg/ml
  TNF (pg/ml) at given Concentration of Compound: 460 pg/mL
[5]; Table 7, Experiment 1, 1.0 μg/ml
  TNF (pg/ml) at given Concentration of Compound: 620 pg/mL
[5]; Table 7, Experiment 1, 10.0 μg/ml
  TNF (pg/ml) at given Concentration of Compound: 500 pg/mL
[5]; Table 9, Experiment 2, 0.1 μg/ml
  TNF (pg/ml) at given Concentration of Compound: 1400 pg/mL
[5]; Table 9, Experiment 2, 1.0 μg/ml
  TNF (pg/ml) at given Concentration of Compound: 1700 pg/mL
[5]; Table 9, Experiment 2, 10.0 μg/ml
  TNF (pg/ml) at given Concentration of Compound: 1070 pg/mL
[6]; Experiment 1, 1.0 μg/ml
  PERCENT CYTOTOXICITY: 59%
[6]; Experiment 2, 1.0 μg/ml
  PERCENT CYTOTOXICITY: 37%
